Measured values: PubChem BioAssay (NCI)
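Dose response: 5 concentrations. Exposure: 48 h. Format: 96-well plates. Endpoint: linear interpolation; highest concentration if not reached. The concentration for 50% growth inhibition is given as GI50. TGI marks complete inhibition of growth.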

Experiments:
Test in all cases: DTP human tumour cell line panel, 48 h; in the data active = GI50 below about 0.43 µM; inactive = the rest
MDA-MB-435 = test system: MDA-MB-435
SK-MEL-28 melanoma = test system: SK-MEL-28 melanoma
SF-268 CNS = test system: SF-268 CNS
HS 578T breast = test system: HS 578T breast
U251 CNS = test system: U251 CNS
SW-620 colon = test system: SW-620 colon
NCI/ADR-RES ovarian = test system: NCI/ADR-RES ovarian
MOLT-4 leukemia = test system: MOLT-4 leukemia
NCI-H522 lung = test system: NCI-H522 lung
UO-31 renal = test system: UO-31 renal
NCI-H23 lung = test system: NCI-H23 lung
786-0 renal = test system: 786-0 renal
SF-295 CNS = test system: SF-295 CNS
HT29 colon = test system: HT29 colon
HCT-116 colon = test system: HCT-116 colon
HOP-92 NSCLC = test system: HOP-92 NSCLC
HCT-15 colon = test system: HCT-15 colon
K-562 leukemia = test system: K-562 leukemia
DU-145 prostate = test system: DU-145 prostate
IGROV1 ovarian = test system: IGROV1 ovarian
KM12 colon = test system: KM12 colon
MDA-MB-231 breast = test system: MDA-MB-231 breast
SN12C renal = test system: SN12C renal
SR leukemia = test system: SR leukemia
SNB-75 CNS = test system: SNB-75 CNS
LOX IMVI melanoma = test system: LOX IMVI melanoma
NCI-H460 lung = test system: NCI-H460 lung
MALME-3M melanoma = test system: MALME-3M melanoma
SF-539 CNS = test system: SF-539 CNS
M14 melanoma = test system: M14 melanoma
OVCAR-3 ovarian = test system: OVCAR-3 ovarian
RPMI-8226 leukemia = test system: RPMI-8226 leukemia
T-47D breast = test system: T-47D breast
OVCAR-8 ovarian = test system: OVCAR-8 ovarian
RXF 393 renal = test system: RXF 393 renal
ACHN renal = test system: ACHN renal
CCRF-CEM leukemia = test system: CCRF-CEM leukemia
A549 NSCLC = test system: A549 NSCLC
HCC-2998 colon = test system: HCC-2998 colon
SNB-19 CNS = test system: SNB-19 CNS
MCF7 breast = test system: MCF7 breast
HOP-62 NSCLC = test system: HOP-62 NSCLC

O=C(O)c1cn(C2CC2)c2cc(N3CCN(C(=O)Nc4nc(-c5ccc(Br)cc5)cs4)CC3)c(F)cc2c1=O
inactive: GI50 (MDA-MB-435) 1.88 µM | GI50 (SK-MEL-28 melanoma) 4.08 µM | GI50 (SF-268 CNS) 1.23 µM | GI50 (HS 578T breast) 1.91 µM | GI50 (U251 CNS) 1.96 µM | GI50 (SW-620 colon) 4.13 µM | GI50 (NCI/ADR-RES ovarian) > 100 µM | GI50 (MOLT-4 leukemia) 0.622 µM | GI50 (NCI-H522 lung) 2.41 µM | GI50 (UO-31 renal) 1.64 µM | GI50 (NCI-H23 lung) 1.43 µM | GI50 (786-0 renal) 1.75 µM | GI50 (SF-295 CNS) 3.06 µM | GI50 (HT29 colon) 2.6 µM | GI50 (HCT-116 colon) 1.17 µM | GI50 (HOP-92 NSCLC) 2 µM | GI50 (HCT-15 colon) 1.75 µM | GI50 (K-562 leukemia) 1.51 µM | GI50 (DU-145 prostate) 2.05 µM | GI50 (IGROV1 ovarian) 3.38 µM | GI50 (KM12 colon) 1.93 µM | GI50 (MDA-MB-231 breast) 3.48 µM | GI50 (SN12C renal) 3.07 µM | GI50 (SR leukemia) 0.454 µM | GI50 (SNB-75 CNS) 0.715 µM | GI50 (LOX IMVI melanoma) 1.09 µM | GI50 (NCI-H460 lung) 1.09 µM | GI50 (MALME-3M melanoma) 0.853 µM | GI50 (SF-539 CNS) 1.56 µM | GI50 (M14 melanoma) 2.24 µM | GI50 (OVCAR-3 ovarian) 1.42 µM | GI50 (RPMI-8226 leukemia) 0.437 µM | GI50 (T-47D breast) 1.57 µM | GI50 (OVCAR-8 ovarian) 3.72 µM | GI50 (RXF 393 renal) 3.9 µM | GI50 (ACHN renal) 3.11 µM | GI50 (CCRF-CEM leukemia) 1.23 µM | GI50 (A549 NSCLC) 3.68 µM | GI50 (HCC-2998 colon) 2.97 µM | GI50 (SNB-19 CNS) 1.41 µM | GI50 (MCF7 breast) 2.7 µM | GI50 (HOP-62 NSCLC) 4.34 µM
> 100 µM: TGI (MDA-MB-435) | TGI (SK-MEL-28 melanoma) | TGI (SF-268 CNS) | TGI (HS 578T breast) | TGI (U251 CNS) | TGI (SW-620 colon) | TGI (NCI/ADR-RES ovarian) | TGI (MOLT-4 leukemia) | TGI (NCI-H522 lung) | TGI (UO-31 renal) | TGI (NCI-H23 lung) | TGI (786-0 renal) | TGI (SF-295 CNS) | TGI (HT29 colon) | TGI (HCT-116 colon) | TGI (HCT-15 colon) | TGI (K-562 leukemia) | TGI (DU-145 prostate) | TGI (IGROV1 ovarian) | TGI (KM12 colon) | TGI (MDA-MB-231 breast) | TGI (SN12C renal) | TGI (SR leukemia) | TGI (SNB-75 CNS) | TGI (LOX IMVI melanoma) | TGI (NCI-H460 lung) | TGI (MALME-3M melanoma) | TGI (SF-539 CNS) | TGI (M14 melanoma) | TGI (OVCAR-3 ovarian) | TGI (RPMI-8226 leukemia) | TGI (T-47D breast) | TGI (OVCAR-8 ovarian) | TGI (RXF 393 renal) | TGI (ACHN renal) | TGI (CCRF-CEM leukemia) | TGI (A549 NSCLC) | TGI (HCC-2998 colon) | TGI (SNB-19 CNS) | TGI (MCF7 breast) | TGI (HOP-62 NSCLC)
6.88 µM: TGI (HOP-92 NSCLC)
